Measurements: ChEMBL document CHEMBL1129047, “(2S,3S,5R)-2-(3,5-difluorophenyl)-3,5-dimethyl-2-morpholinol: a novel antidepressant agent and selective inhibitor of norepinephrine uptake” (J Med Chem, 1996)

Columns and labels:
Rattus norvegicus [1] = assay: Compound was tested for the inhibition of tetrabenazine-induced sedation in rat, after peroral administration; assay type: functional; conditions: po
Rattus norvegicus [2] = species: Rattus norvegicus; assay: In vitro inhibition of norepinephrine (NE) uptake in synaptosomal preparation of rat brain; assay type: functional, organism-based
Rattus norvegicus [3] = species: Rattus norvegicus; assay: In vitro inhibition of serotonin uptake in synaptosomal preparation of rat brain; assay type: functional, organism-based
Rattus norvegicus [4] = species: Rattus norvegicus; assay: In vitro inhibition of dopamine (DA) uptake in synaptosomal preparation of rat brain; assay type: functional, organism-based
Mus musculus = assay: Compound was tested for the inhibition of tetrabenazine-induced sedation in mice, after peroral administration; assay type: functional; conditions: po
Rattus norvegicus [5] = assay: Compound was tested for the inhibition of tetrabenazine-induced sedation in rat, after peroral administration; failed to produce a 50%antagonism; assay type: functional; conditions: po

SMILES	ED50 (Rattus norvegicus [1]) [mg/kg]	IC50 (Rattus norvegicus [2]) [nM]	IC50 (Rattus norvegicus [3]) [nM]	IC50 (Rattus norvegicus [4]) [nM]	ED50 (Mus musculus) [mg/kg]	ED50 (Rattus norvegicus [5]) [mg/kg]
CN(C)CCCN1c2ccccc2CCc2ccccc21 [IMIPRAMINE]	13.4	40	500	> 10000	9	
C[C@@H]1CO[C@@](O)(c2cc(F)cc(F)c2)[C@H](C)N1 [MANIFAXINE]	1.4	70	> 10000	1000	6.2	
CC(NC(C)(C)C)C(=O)c1cccc(Cl)c1 (stereo not given) [BUPROPION]		2400	> 10000	900	32	> 100
